IC50 data for 21 compounds are collected here from patent publication US11267812B2 (Mirati Therapeutics, Inc., priority 2016, dated 2022).

pIC50: −log10 of the molar value. Read-outs that look alike come from different tables or passages of the source.

This assay deals with Phospho-ERK in NCI-H358 cells expressing KRas G12C. The assay is described as follows: Cellular inhibition of KRas G12C by Phospho-ERK measurement in NCI-H358 cells. In kind it is cell-based. The settings on record: Homo sapiens, read-out: IC50 (pERK(Thr202/Tyr204) normalized with GAPDH). The procedure: The cellular inhibition of KRAs G12C by exemplary compounds of the present invention was determined by measuring the amount of a downstream marker of KRas activity, phosphorylated ERK (“Phospho-ERK”).
NCI-H358 cells (ATCC CRL-5807) express KRas G12C and were grown in RPMI medium supplemented with 10% fetal bovine serum, penicillin/streptomycin and 10 mM HEPES. Cells were plated in poly-D-Lysine coated 96-well plates at a concentration of 50,000 cells/well and allowed to attach for 8-12 hours. Diluted compounds were then added at a final concentration of 0.5% DMSO. After 3 hours, the medium was removed, 150 μL of 4% formaldehyde was added and the plates were incubated for 20 minutes. The plates were washed with PBS, and permeabilized using 150 μL of ice cold 100% methanol for 10 minutes. Non-specific antibody binding to the plates was blocked using 100 μL Licor Blocking Buffer (Li-Cor Biotechnology, Lincoln Nebr.) for 1 hour at room temperature. Positive control samples and samples lacking cells were parallel processed with test samples as standards.
The amount Phospho-ERK was determined using an antibody specific for the phosphorylated form of ERK and compared to the amount of GAPDH. Primary antibodies used for detection were added as follows: Phospho-ERK (Cell Signaling cs9101) diluted 1:500 and GAPDH (Millipore MAB374) diluted 1:5000 in Licor block+0.05% Tween 20. The plates were incubated for 2 hours at room temperature. The plates were washed with PBS+0.05% Tween 20.
Secondary antibodies used to visualize primary antibodies were added as follows: Anti-rabbit-680 diluted 1:1000 and Anti-mouse-800 diluted 1:1000 in Licor Block+0.050 Tween 20 and incubated for 1 hour at room temperature. The plates were washed with PBS+0.05% o Tween 20. A100 L aliquot of PBS was added to each well and the plates were read on a LICOR AERIUS plate reader.
The pERK(Thr202/Tyr204) signal was normalized with the GAPDH signal and percent of DMSO control values were calculated. IC50 values were generated using a 4 parameter fit of the dose response curve. Key: “A”≥0.001-≤1 μM; “B”[…] and ND=not determined.

The mark [1] stands for this setting: NCI-H358 cells, 3 hours compound treatment.

For the compound `C=CC(=O)N1CCN(c2nc(O[C@H](C)CN(C)C)nc3c2CCN(c2cc(O)cc4ccccc24)C3)CC1` [Example 19, (R)-1-(4-(2-((1-(dimethylamino)propan-2-yl)oxy)-7-(3-hydroxynaphthalen-1-yl)-5,6,7,8-tetrahydropyrido[3,4-d]pyrimidin-4-yl)piperazin-1-yl)prop-2-en-1-one], the pIC50 under setting [1] is 6.00 to 9.00.

In the case of `C=CC(=O)N1CCN(c2nc(OCC3CCCN(C)C3)nc3c2CCN(c2cc(O)cc4ccccc24)C3)CC1` (stereo not drawn) [Example 72, 1-(4-(7-(3-hydroxynaphthalen-1-yl)-2-((1-methylpiperidin-3-yl)methoxy)-5,6,7,8-tetrahydropyrido[3,4-d]pyrimidin-4-yl)piperazin-1-yl)prop-2-en-1-one], the pIC50 under setting [1] is 6.00 to 9.00.

On to `C=CC(=O)N1CCN(c2nc(OC[C@H]3CCN(C)C3)nc3c2CCN(c2cc(O)cc4ccccc24)C3)CC1` [Example 188, (S)-1-(4-(7-(3-hydroxynaphthalen-1-yl)-2-((1-methylpyrrolidin-3-yl)methoxy)-5,6,7,8-tetrahydropyrido[3,4-d]pyrimidin-4-yl)piperazin-1-yl)prop-2-en-1-one], for which, under “NCI-H358, 3 h”, the pIC50 is 6.00 to 9.00.

Consider `C=CC(=O)N1CCN(c2nc(OC[C@@H]3CCCN3C)nc3c2CCN(c2cccc(Cl)c2C(F)(F)F)C3)CC1CC#N` (stereo partly drawn) [Example 277, 2-(1-acryloyl-4-(7-(3-chloro-2-(trifluoromethyl)phenyl)-2-(((S)-1-methylpyrrolidin-2-yl)methoxy)-5,6,7,8-tetrahydropyrido[3,4-d]pyrimidin-4-yl)piperazin-2-yl)acetonitrile], for which the pIC50 under setting [1] is 6.00 to 9.00.

Take `C=CC(=O)N1CCN(c2nc(OC[C@@H]3CCCN3C)nc3c2CCN(c2cccc(C)c2C(F)(F)F)C3)CC1CC#N` (stereo partly drawn) [Example 265, 2-(1-acryloyl-4-(7-(3-methyl-2-(trifluoromethyl)phenyl)-2-(((S)-1-methylpyrrolidin-2-yl)methoxy)-5,6,7,8-tetrahydropyrido[3,4-d]pyrimidin-4-yl)piperazin-2-yl)acetonitrile]: the pIC50 under setting [1] was 6.00 to 9.00.

Regarding `C=CC(=O)N1CCN(c2nc(OCCCN3CCOCC3)nc3c2CCN(c2cc(O)ccc2OC(F)(F)F)C3)CC1` [Example 90, 1-(4-(7-(5-hydroxy-2-(trifluoromethoxy)phenyl)-2-(3-morpholinopropoxy)-5,6,7,8-tetrahydropyrido[3,4-d]pyrimidin-4-yl)piperazin-1-yl)prop-2-en-1-one], the pIC50 under setting [1] was 6.00 to 9.00.

Consider `C=CC(=O)N1CCN(c2nc(OC(C)CN(C)C)nc3c2CCN(c2cc(O)cc4ccccc24)C3)CC1` (stereo not drawn) [Example 11, 1-(4-(2-((1-(dimethylamino)propan-2-yl)oxy)-7-(3-hydroxynaphthalen-1-yl)-5,6,7,8-tetrahydropyrido[3,4-d]pyrimidin-4-yl)piperazin-1-yl)prop-2-en-1-one], for which, under setting [1], the pIC50 is 6.00 to 9.00.

With `C=CC(=O)N1CCN(c2nc(OCC3CCN(C4CC4)C3)nc3c2CCN(c2cc(O)cc4ccccc24)C3)CC1` (stereo not drawn) [Example 190, 1-(4-(2-((1-cyclopropylpyrrolidin-3-yl)methoxy)-7-(3-hydroxynaphthalen-1-yl)-5,6,7,8-tetrahydropyrido[3,4-d]pyrimidin-4-yl)piperazin-1-yl)prop-2-en-1-one], the pIC50 under setting [1] is 6.00 to 9.00.

With `C=CC(=O)N1CCN(c2nc(O[C@H](C)CN3CCCC3)nc3c2CCN(c2cc(O)cc4ccccc24)C3)CC1` [Example 120, (R)-1-(4-(7-(3-hydroxynaphthalen-1-yl)-2-((1-(pyrrolidin-1-yl)propan-2-yl)oxy)-5,6,7,8-tetrahydropyrido[3,4-d]pyrimidin-4-yl)piperazin-1-yl)prop-2-en-1-one], the pIC50 under setting [1] was 6.00 to 9.00.

On to `C=CC(=O)N1CCN(c2nc(OC[C@@H]3CN(C)CCO3)nc3c2CCN(c2cccc4ccccc24)C3)CC1CC#N` (stereo partly drawn) [Example 271, 2-(1-acryloyl-4-(2-(((S)-4-methylmorpholin-2-yl)methoxy)-7-(naphthalen-1-yl)-5,6,7,8-tetrahydropyrido[3,4-d]pyrimidin-4-yl)piperazin-2-yl)acetonitrile], for which, under setting [1], the pIC50 is 6.00 to 9.00.

With `C=CC(=O)N1CCN(c2nc(OC[C@H]3CCCN3C)nc3c2CCN(c2cc(O)cc4ccccc24)C3)CC1CC#N` (stereo partly drawn) [Example 178, 2-[4-[7-(3-hydroxy-1-naphthyl)-2-[[(2R)-1-methylpyrrolidin-2-yl]methoxy]-6,8-dihydro-5H-pyrido[3,4-d]pyrimidin-4-yl]-1-prop-2-enoyl-piperazin-2-yl]acetonitrile], the pIC50 under setting [1] is 6.00 to 9.00.

Take `C=CC(=O)N1CCN(c2nc(OC[C@@H]3CCCN3C)nc3c2CCN(c2ccc(F)c4ccccc24)C3)CC1CC#N` (stereo partly drawn) [Example 246, 2-[4-[7-(4-fluoro-1-naphthyl)-2-[[(2S)-1-methylpyrrolidin-2-yl]methoxy]-6,8-dihydro-5H-pyrido[3,4-d]pyrimidin-4-yl]-1-prop-2-enoyl-piperazin-2-yl]acetonitrile]: the pIC50 under setting [1] was 6.00 to 9.00.

Consider `C=CC(=O)N1CCN(c2nc(OC[C@@H]3CCCN3C)nc3c2CCN(c2ccccc2C(F)(F)F)C3)C[C@@H]1CC#N` [Example 237, 2-((S)-1-acryloyl-4-(2-(((S)-1-methylpyrrolidin-2-yl)methoxy)-7-(2-(trifluoromethyl)phenyl)-5,6,7,8-tetrahydropyrido[3,4-d]pyrimidin-4-yl)piperazin-2-yl)acetonitrile 2,2,2-trifluoroacetate], for which the pIC50 under setting [1] was 6.00 to 9.00.

Regarding `C=CC(=O)N1CCN(c2nc(OC[C@@H]3C[C@@H](OC)CN3C)nc3c2CCN(c2cccc4ccccc24)C3)CC1CC#N` (stereo partly drawn) [Example 268, 2-(1-acryloyl-4-(2-(((2S,4R)-4-methoxy-1-methylpyrrolidin-2-yl)methoxy)-7-(naphthalen-1-yl)-5,6,7,8-tetrahydropyrido[3,4-d]pyrimidin-4-yl)piperazin-2-yl)acetonitrile], the pIC50 under setting [1] is 6.00 to 9.00.

Take `C=CC(=O)N1CCN(c2nc(OC[C@H]3CCCN3C)nc3c2CCN(c2cc(O)cc4ccccc24)C3)CC1` [Example 187, (R)-1-(4-(7-(3-hydroxynaphthalen-1-yl)-2-((1-methylpyrrolidin-2-yl)methoxy)-5,6,7,8-tetrahydropyrido[3,4-d]pyrimidin-4-yl)piperazin-1-yl)prop-2-en-1-one]: the pIC50 (NCI-H358, 3 h) is 6.00 to 9.00.

For `C=CC(=O)N1CCN(c2nc(OC[C@@H]3CCCN3C)nc3c2CCN(c2cc(O)cc4ccccc24)C3)CC1` [Example 127, (S)-1-(4-(7-(3-hydroxynaphthalen-1-yl)-2-((1-methylpyrrolidin-2-yl)methoxy)-5,6,7,8-tetrahydropyrido[3,4-d]pyrimidin-4-yl)piperazin-1-yl)prop-2-en-1-one], the pIC50 (NCI-H358, 3 h) was 6.00 to 9.00.

Turning to `C=CC(=O)N1CCN(c2nc(OC[C@@H]3CCCN3C)nc3c2CCN(c2cccnc2C(F)(F)F)C3)CC1CC#N` (stereo partly drawn) [Example 226, 2-(1-acryloyl-4-(2-(((S)-1-methylpyrrolidin-2-yl)methoxy)-7-(2-(trifluoromethyl)pyridin-3-yl)-5,6,7,8-tetrahydropyrido[3,4-d]pyrimidin-4-yl)piperazin-2-yl)acetonitrile], the pIC50 under setting [1] is 6.00 to 9.00.

`C=CC(=O)N1CCN(c2nc(OC[C@@H]3CN(C)CCN3)nc3c2CCN(c2cccc4ccccc24)C3)CC1CC#N` (stereo partly drawn) [Example 223, 2-(1-acryloyl-4-(2-(((S)-4-methylpiperazin-2-yl)methoxy)-7-(naphthalen-1-yl)-5,6,7,8-tetrahydropyrido[3,4-d]pyrimidin-4-yl)piperazin-2-yl)acetonitrile]: the pIC50 under setting [1] was 6.00 to 9.00.

`C=CC(=O)N1CCN(c2nc(OCCN(C)C)nc3c2CCN(c2cc(O)cc4ccccc24)C3)[C@@H](C)C1` [Example 116, (S)-1-(4-(2-(2-(dimethylamino)ethoxy)-7-(3-hydroxynaphthalen-1-yl)-5,6,7,8-tetrahydropyrido[3,4-d]pyrimidin-4-yl)-3-methylpiperazin-1-yl)prop-2-en-1-one]: the pIC50 under setting [1] was 6.00 to 9.00.

In the case of `C=CC(=O)N1CCN(c2nc(OC[C@@H]3CCCN3C)nc3c2CCN(c2ccccc2OC(F)(F)F)C3)CC1CC#N` (stereo partly drawn) [Example 211, 2-(1-acryloyl-4-(2-(((S)-1-methylpyrrolidin-2-yl)methoxy)-7-(2-(trifluoromethoxy)phenyl)-5,6,7,8-tetrahydropyrido[3,4-d]pyrimidin-4-yl)piperazin-2-yl)acetonitrile], under setting [1], the pIC50 is 6.00 to 9.00.

With `C=CC(=O)N1CCN(c2nc(OC[C@@H]3C[C@H](OC)CN3C)nc3c2CCN(c2cccc4ccccc24)C3)CC1CC#N` (stereo partly drawn) [Example 222, 2-(1-acryloyl-4-(2-(((2S,4S)-4-methoxy-1-methylpyrrolidin-2-yl)methoxy)-7-(naphthalen-1-yl)-5,6,7,8-tetrahydropyrido[3,4-d]pyrimidin-4-yl)piperazin-2-yl)acetonitrile], the pIC50 under setting [1] was 6.00 to 9.00.
